Legend:
Sprague-Dawley male rats [1] = settings: rat, in vivo, iv
[2] = biological target: T1, human N-type calcium channel (Homo sapiens, UniProt Q00975); format: cell-based
T1 construct: expressed in transfected cells; host or cells: HEK 293 (human embryonic kidney) cells

[3] = biological target: T1, human N-type calcium channel; format: cell-based; remark: listed apart in the source
ICR mice [4] = settings: mouse, in vivo
ICR mice [5] = settings: mouse, in vivo; remark: listed apart in the source
Sprague-Dawley male rats [6] = settings: rat, in vivo
ICR mice [7] = settings: mouse, in vivo; remark: listed apart in the source
Sprague-Dawley male rats [8] = settings: rat, in vivo; remark: listed apart in the source
ICR mice [9] = settings: mouse, in vivo, ip
ICR mice [10] = settings: mouse, in vivo; remark: listed apart in the source
Sprague-Dawley male rats [11] = settings: rat, in vivo; remark: listed apart in the source
ICR mice [12] = settings: mouse, in vivo; remark: listed apart in the source

T1 sequence (Q00975 whole entry, looked up): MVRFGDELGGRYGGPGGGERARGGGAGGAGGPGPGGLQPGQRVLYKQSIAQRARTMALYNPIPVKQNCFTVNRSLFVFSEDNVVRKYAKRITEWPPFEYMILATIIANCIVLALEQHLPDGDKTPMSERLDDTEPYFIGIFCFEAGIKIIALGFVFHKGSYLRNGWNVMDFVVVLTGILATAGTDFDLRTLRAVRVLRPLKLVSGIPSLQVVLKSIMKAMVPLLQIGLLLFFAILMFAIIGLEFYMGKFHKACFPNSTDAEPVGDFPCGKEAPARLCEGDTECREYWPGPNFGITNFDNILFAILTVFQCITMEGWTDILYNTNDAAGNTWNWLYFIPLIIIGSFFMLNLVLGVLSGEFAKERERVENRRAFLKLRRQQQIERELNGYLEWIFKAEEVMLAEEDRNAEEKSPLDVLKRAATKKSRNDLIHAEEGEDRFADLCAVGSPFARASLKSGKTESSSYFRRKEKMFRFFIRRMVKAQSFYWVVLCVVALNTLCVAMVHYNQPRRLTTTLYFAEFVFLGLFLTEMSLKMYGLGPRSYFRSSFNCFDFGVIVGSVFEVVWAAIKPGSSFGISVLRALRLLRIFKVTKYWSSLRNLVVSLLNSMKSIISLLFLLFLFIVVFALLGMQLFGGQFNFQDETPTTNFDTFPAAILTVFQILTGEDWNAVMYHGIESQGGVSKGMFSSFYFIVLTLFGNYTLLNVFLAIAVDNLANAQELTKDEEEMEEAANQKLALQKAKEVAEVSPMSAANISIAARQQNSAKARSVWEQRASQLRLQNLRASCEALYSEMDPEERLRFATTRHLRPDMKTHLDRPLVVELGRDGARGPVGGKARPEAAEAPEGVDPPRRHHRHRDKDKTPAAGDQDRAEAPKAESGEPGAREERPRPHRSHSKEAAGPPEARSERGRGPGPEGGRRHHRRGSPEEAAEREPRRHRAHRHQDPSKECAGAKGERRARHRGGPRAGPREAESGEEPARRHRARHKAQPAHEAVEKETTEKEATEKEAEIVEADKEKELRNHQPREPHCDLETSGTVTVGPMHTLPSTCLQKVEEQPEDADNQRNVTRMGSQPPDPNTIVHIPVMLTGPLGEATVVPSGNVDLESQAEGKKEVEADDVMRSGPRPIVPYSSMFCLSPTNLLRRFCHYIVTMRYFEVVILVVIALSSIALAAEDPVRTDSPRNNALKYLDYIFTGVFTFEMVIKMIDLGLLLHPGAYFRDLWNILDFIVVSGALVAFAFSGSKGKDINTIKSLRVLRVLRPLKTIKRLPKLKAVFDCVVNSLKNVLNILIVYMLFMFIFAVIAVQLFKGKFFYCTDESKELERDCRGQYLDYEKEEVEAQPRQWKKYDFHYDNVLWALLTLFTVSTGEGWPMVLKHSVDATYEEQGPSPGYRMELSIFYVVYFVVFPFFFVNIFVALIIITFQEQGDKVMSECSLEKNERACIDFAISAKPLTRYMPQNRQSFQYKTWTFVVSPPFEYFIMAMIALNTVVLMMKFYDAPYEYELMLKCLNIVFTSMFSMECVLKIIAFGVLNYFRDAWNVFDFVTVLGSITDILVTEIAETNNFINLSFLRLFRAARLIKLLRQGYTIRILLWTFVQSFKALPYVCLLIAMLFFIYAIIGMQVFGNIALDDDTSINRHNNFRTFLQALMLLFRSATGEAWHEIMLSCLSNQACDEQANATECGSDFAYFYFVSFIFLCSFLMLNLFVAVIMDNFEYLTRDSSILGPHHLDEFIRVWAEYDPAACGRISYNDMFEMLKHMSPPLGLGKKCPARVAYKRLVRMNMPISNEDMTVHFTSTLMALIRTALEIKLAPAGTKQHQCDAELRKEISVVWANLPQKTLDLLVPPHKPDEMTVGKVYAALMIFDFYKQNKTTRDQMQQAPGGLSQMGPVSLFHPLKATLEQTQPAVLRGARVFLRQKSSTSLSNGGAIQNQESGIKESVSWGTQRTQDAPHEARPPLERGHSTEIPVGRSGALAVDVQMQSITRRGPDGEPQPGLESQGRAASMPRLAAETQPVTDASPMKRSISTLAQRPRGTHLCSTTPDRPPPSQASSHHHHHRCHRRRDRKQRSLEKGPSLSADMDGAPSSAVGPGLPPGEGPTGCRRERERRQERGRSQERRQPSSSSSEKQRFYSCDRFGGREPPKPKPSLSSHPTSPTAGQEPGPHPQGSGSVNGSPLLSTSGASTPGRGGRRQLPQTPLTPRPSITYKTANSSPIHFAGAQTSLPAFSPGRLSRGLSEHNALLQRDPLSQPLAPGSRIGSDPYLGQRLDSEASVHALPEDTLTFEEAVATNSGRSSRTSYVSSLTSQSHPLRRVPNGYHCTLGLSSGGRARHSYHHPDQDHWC

Compound	Arterial pressure after lapse of time (Sprague-Dawley male rats [1])	Mean arterial pressure (MAP) time course (Sprague-Dawley male rats [1])	Calcium channel blocking activity [2]	Recovery relative to MVIIA [3] [fold]	Cumulative pain response, substance P-induced (ICR mice [4])	Withdrawal latency, tail-flick test (ICR mice [5])	Analgesic effect on warm allodynia (Sprague-Dawley male rats [6])	Current-voltage curve [2]	IC50 ([2]; read-out: IC50 from dose-inhibition curve) [nM]	Cumulative pain response, glutamate-induced (ICR mice [7])	Analgesic effect on cold allodynia (Sprague-Dawley male rats [8])	Count of writhing responses (ICR mice [9])	Cumulative pain response, formalin test (ICR mice [10])	Dose dependence of analgesic effect, formalin test (ICR mice [10])	Pain behaviors in the second phase, formalin test (ICR mice [10])	50% withdrawal threshold, mechanical allodynia (Sprague-Dawley male rats [11])	Dissociation on washout [3]	Withdrawal latency, plantar test (ICR mice [12])
CSCC[C@@H]1NC(=O)[C@H](CC(C)C)NC(=O)[C@H](CCCNC(=N)N)NC(=O)[C@H](CO)NC(=O)[C@@H]2CSSC[C@@H]3NC(=O)[C@H](CO)NC(=O)CNC(=O)[C@H]([C@@H](C)O)NC(=O)[C@H](CSSC[C@H](N)C(=O)N[C@@H](CCCCN)C(=O)NCC(=O)N[C@@H](CCCCN)C(=O)NCC(=O)N[C@@H](C)C(=O)N[C@@H](CCCCN)C(=O)N2)NC(=O)[C@H](CSSC[C@@H](C(N)=O)NC(=O)[C@H](CCCCN)NC(=O)CNC(=O)[C@H](CO)NC(=O)[C@H](CCCNC(=N)N)NC3=O)NC(=O)[C@H](CC(=O)O)NC(=O)[C@H](Cc2ccc(O)cc2)NC1=O [MVIIA, CKGKGAKCSRLMYDCCTGSCRSGKC-NH2]	around 60 mmHg	sharp decrease in MAP at an initial stage and slow recovery in MAP																
CKGKGAKCSRIAYNCCTGSCRSGKC-NH2 [Chimera-MFMM]			significant calcium channel blocking activity	~2														
CC[C@H](C)[C@@H]1NC(=O)[C@H](CCCNC(=N)N)NC(=O)[C@H](CO)NC(=O)[C@@H]2CSSC[C@@H]3NC(=O)[C@H](CO)NC(=O)CNC(=O)[C@H]([C@@H](C)O)NC(=O)[C@H](CSSC[C@H](N)C(=O)N[C@@H](CCCCN)C(=O)NCC(=O)N[C@@H]([C@@H](C)O)C(=O)NCC(=O)N[C@@H](CCCCN)C(=O)N[C@@H](CO)C(=O)N2)NC(=O)[C@H](CSSC[C@@H](C(N)=O)NC(=O)[C@H](CCCCN)NC(=O)CNC(=O)[C@H](CO)NC(=O)[C@H](CCCNC(=N)N)NC3=O)NC(=O)[C@H](CC(N)=O)NC(=O)[C@H](Cc2ccc(O)cc2)NC(=O)[C@H](C)NC1=O [FVIA, CKGTGKSCSRIAYNCCTGSCRSGKC-NH2]		much better recovery in MAP			significantly decreased cumulative pain response rate	not effective in increasing withdrawal latency	exhibits analgesic effects on cold and warm allodynia	curve inhibition without the horizontal curve shift	11.5 ± 1.4	significantly decreased cumulative pain response rate	exhibits analgesic effects on cold and warm allodynia	significantly decreased	significantly decreased cumulative pain response rate in both the first phase and the second phase	analgesic effect in a dose-dependent manner	completely prevented pain behaviors in the second phase	elevate 50% withdrawal threshold in a dose dependent manner	better dissociation comparing MVIIA washout	not effective in increasing withdrawal latency

Reference: patent publication US8673856B2 (Anygen Co., Ltd., priority 2006, dated 2014)
